# PubChem BioAssay (NCI)
#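 Interpolation was linear, between the two tested concentrations surrounding the appropriate level; five concentrations were tested over 48 hours in 96-well plates. GI50 is the concentration that inhibits growth by half. Definition used: TGI = concentration required for complete inhibition of growth.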
# What was measured:
# Test in all cases: DTP human tumour cell line panel, 48 h
# [1] = system: HS 578T breast
# [2] = system: UACC-62 melanoma
# [3] = system: SK-MEL-28 melanoma
# [4] = system: NCI/ADR-RES ovarian
# [5] = system: CAKI-1 renal
# [6] = system: RXF 393 renal
# [7] = system: K-562 leukemia
# [8] = system: HL-60(TB) leukemia
SMILES,TGI [1] [µM],TGI [2] [µM],TGI [3] [µM],TGI [4] [µM],TGI [5] [µM],TGI [6] [µM],TGI [7] [µM],TGI [8] [µM],GI50 [1] [µM],GI50 [3] [µM],GI50 [4] [µM],GI50 [5] [µM],GI50 [6] [µM],GI50 [8] [µM],GI50 [7] [µM],GI50 [2] [µM]
CC1=CC(C)(C)Nc2ccc(CSc3ccccc3)cc21,> 100,> 100,> 100,> 100,> 100,38.3,> 100,,,,,,,,,
O=C1C(Cl)=C(N2CCN(c3ccccn3)CC2)C(=O)c2ncccc21,5.95,5.52,4.38,7.44,4.01,3.7,5.78,4.79,,,,,,,,
CC(C)(C)NC(=O)C12C3C4C1C1C2C3C41C(=O)NC(C)(C)C (stereo unspecified),> 100,> 100,> 100,> 100,> 100,> 100,> 100,> 100,,,,,,,,
O=C(O)CCC(NC(=O)c1ccc(CNc2nc3ccccc3nc2C(=O)O)cc1)C(=O)O (stereo unspecified),> 100,> 100,> 100,> 100,,,> 100,,,,,,,,,
COc1ccc(Nc2nc3ccccc3nc2C(=O)O)cc1OC,> 100,> 100,> 100,> 100,> 100,> 100,> 100,> 100,,,,,,,,
C[N+](C)([O-])Cc1cc(-c2ccccc2)ccc1O,> 100,> 100,> 100,> 100,> 100,> 100,> 100,,,,,,,,,
O=C(N/N=C(/COc1cccc(Cl)c1)N=Cc1cccnc1)c1ccncc1,> 100,> 100,> 100,> 100,> 100,> 100,> 100,> 100,,,,,,,,
Cn1c(-c2ccc(N=NNc3ccc(-c4n[nH]c(=S)n4C)cc3)cc2)n[nH]c1=S,> 100,,> 100,> 100,,32.6,> 100,> 100,,,,,,,,
COC(=O)c1c(C(=O)OC)c2c3ccccc3n(C)c2c2c1c1ccccc1n2C,> 100,> 100,> 100,> 100,> 100,,> 100,,,,,,,,,
COc1ccc(/C=C2/CCS(=O)(=O)c3ccc(C)cc3C2=O)cc1OC,73.2,22.7,56.5,46.5,47.5,29.6,> 100,51.5,,,,,,,,
COc1ncnc2c1cnn2Cc1cn(CCCCO)nn1,> 100,> 100,> 100,> 100,> 100,> 100,> 100,,,,,,,,,
COc1ccc(-c2nc(-c3cnccn3)n(COCCO)n2)cc1,,> 100,> 100,> 100,,> 100,> 100,> 100,,,,,,,,
O=C(O)Cn1c2c(c3c(O)cccc31)C(=O)c1ccccc1-2,> 100,,> 100,> 100,> 100,> 100,> 100,> 100,> 100,> 100,> 100,> 100,> 100,> 100,> 100,
CC(=O)Oc1c(C)c2c(c3ccccc13)OC(C)(C)C2,53.9,30.3,32.9,51.4,40.3,35.9,> 100,69.6,,,,,,,,
CCCOC1OC(CS(=O)(=O)O)C(O)C(O)C1O (stereo unspecified),> 100,> 100,> 100,> 100,> 100,> 100,> 100,> 100,,,,,,,,
COc1ccc2c(CCNS(=O)(=O)c3ccccc3)c(C(C)=O)[nH]c2c1,> 100,> 100,> 100,> 100,> 100,> 100,> 100,> 100,,,,,,,,
BrCC(Br)(c1ccccc1)c1ccccc1-c1cc(-c2ccccc2)cc(-c2ccccc2)n1 (stereo unspecified),26,,25.3,> 100,23.4,5.92,8.69,2.33,,,,,,,,
O=C(NNC(=S)NCc1ccccc1)C12CC3CC(CC(C3)C1)C2,> 100,> 100,> 100,> 100,,> 100,> 100,51.7,,,,,,,,
CC[C@@H](/C=C\CCC1(C[C@@H](N)CCC=C(C)C)OCCO1)O[Si](C(C)C)(C(C)C)C(C)C,52.4,31.9,38.4,33.9,35.4,37.3,31.1,23,,,,,,,,
O=C(/C=C/c1ccc(O)c(O)c1)NCCc1ccc(-c2ccccc2)cc1,> 100,,> 100,> 100,> 100,> 100,80.4,> 100,,,,,,,,
CN1C(=O)C23CCCCC2CC1(c1ccccc1)S3 (stereo unspecified),> 100,> 100,> 100,> 100,> 100,> 100,> 100,> 100,,,,,,,,
CC(=O)Nc1ccc2cc3[nH]c4cc(NC(C)=O)ccc4c3nc2c1,> 100,> 100,> 100,> 100,> 100,> 100,> 100,,,,,,,,,
N#CCCN(CCC#N)c1ccc(C(N=Nc2ccc(Cl)cc2)=Nc2ccc(F)cc2)cc1,> 100,> 100,> 100,> 100,> 100,> 100,> 100,,,,,,,,,
NC(N)=NS(=O)(=O)c1ccc(NC(=O)c2ccc3[nH]c4ccccc4c(=O)c3c2)cc1,> 100,> 100,> 100,> 100,> 100,> 100,> 100,> 100,,,,,,,,
NC(=S)NS(=O)(=O)c1ccc(F)cc1F,> 100,> 100,> 100,> 100,> 100,> 100,> 100,> 100,,,,,,,,
Cc1ccc(C)n1-n1c(-c2ccccc2)n[nH]c1=O,> 100,> 100,> 100,> 100,> 100,> 100,> 100,,,,,,,,,

SMILES,TGI [1] [µM],TGI [2] [µM],TGI [3] [µM],TGI [4] [µM],TGI [5] [µM],TGI [6] [µM],TGI [7] [µM],TGI [8] [µM],GI50 [1] [µM],GI50 [3] [µM],GI50 [4] [µM],GI50 [5] [µM],GI50 [6] [µM],GI50 [8] [µM],GI50 [7] [µM],GI50 [2] [µM]
O=C(Nn1cnn2c(=O)c3ccccc3nc2c1=O)c1ccccc1,> 100,> 100,> 100,,> 100,,> 100,> 100,,,,,,,,
COc1ccccc1NC(=S)Nc1cc(C)ccn1,> 100,> 100,> 100,> 100,> 100,> 100,> 100,> 100,,,,,,,,
C=C1CC(COc2ccc3c(C)cc(=O)oc3c2)(c2ccccc2)OC1=O (stereo unspecified),> 27,3.05,8.37,16.6,3.55,,,,,,,,,,,
CC(=O)O[C@@H]1O[Si](C(C)(C)C)(C(C)(C)C)[C@H](C)[C@H]1C,,> 100,> 100,> 100,> 100,,> 100,44,,,,,,,,
COC(=O)[C@@H]1Cc2cc(O)c(O)cc2C2(CCN(C)CC2)O1,> 10,> 10,> 10,> 10,> 10,> 10,,> 10,,,,,,,,
CN(C)C(=O)C1CCN(Cc2c[nH]c3ccccc23)CC1,> 100,> 100,> 100,> 100,> 100,> 100,> 100,> 100,,,,,,,,
COc1ccc2c(c1)C(N)=C(Cc1ccncc1)C2=O,> 100,> 100,> 100,> 100,> 100,> 100,> 100,> 100,,,,,,,,
COC1(CC[C@H](C)COC2OC(CO)C(O)C(O)C2O)O[C@H]2C[C@H]3[C@@H]4CC=C5C[C@@H](OC6OC(CO)C(O)C(OC7OC(CO)C(O)C(O)C7O)C6OC6OC(C)C(O)C(O)C6O)CC[C@]5(C)[C@H]4CC[C@]3(C)[C@H]2[C@@H]1C (stereo partly specified),24.6,> 39.2,6.74,25.7,10.4,16.3,> 47.9,8.53,,,,,,,,
COc1ccc(N2C(=O)/C(=C\c3cccc(Oc4ccccc4)c3)SC2c2ccccc2)cc1 (stereo unspecified),> 100,> 100,> 100,> 100,> 100,> 100,> 100,> 100,,,,,,,,
O=C1CN(c2ccc(Cl)cc2)C(=O)CN1NCNN1CC(=O)N(c2ccc(Cl)cc2)CC1=O,> 100,> 100,> 100,,> 100,> 100,,> 100,,,,,,,,
Cn1c2c3c(F)c(F)ccc3nc-2cc2ccccc21,> 100,15.8,18.3,7.68,12.2,26.9,> 100,56.6,,,,,,,,
CN(C)c1ccc(C2ON=C(c3ccccc3)N2C23CC4CC(CC(C4)C2)C3)cc1 (stereo unspecified),> 10,> 10,> 10,> 10,> 10,> 10,> 10,> 10,,,,,,,,
O=C(CN(c1ccc(S(=O)(=O)O)cc1)c1ccc(S(=O)(=O)O)cc1)Nn1cnc2ccc(S(=O)(=O)N(c3ccc(S(=O)(=O)O)cc3)c3ccc(S(=O)(=O)O)cc3)cc2c1=O,> 100,> 100,> 100,> 100,> 100,> 100,> 100,> 100,,,,,,,,
COc1ccc2nc3n(c2c1)C(c1c(Cl)cccc1Cl)SC3 (stereo unspecified),,> 100,> 100,> 100,> 100,> 100,> 100,> 100,,,,,,,,
Cc1ccc(C2CC(c3cccc(Nc4ccncc4)c3)=NN2c2ccccc2)cc1 (stereo unspecified),,3.12,,,3.02,3.02,6.62,,,,,1.61,1.61,,2.11,1.71
CCOC(=O)NC(=S)c1ccc(O)c2ccccc12,> 100,> 100,> 100,> 100,> 100,,> 100,39.9,,,,,,,,
COC(=O)C1C(C(=O)OC)C1(Br)CBr (stereo unspecified),> 100,> 100,> 100,> 100,31.6,41.6,,> 100,,,,,,,,
CCN(CC)COC(=S)S,> 100,> 100,> 100,> 100,> 100,> 56.1,> 100,,,,,,,,,
O=[N+]([O-])c1sc2ccc(Cl)cc2c1Nc1ccc(Cl)cc1,> 100,> 100,> 100,> 100,,> 100,> 100,> 100,,,,,,,,
O=[N+]([O-])c1cccc2nc3ccccc3c(NCCCN3CCCCC3)c12,0.0966,0.0298,,4.9,0.496,0.0246,1.12,0.511,,,,,,,,
O=[As](O)(O)c1ccc2nc3cc([As](=O)(O)O)ccc3nc2c1,> 100,> 100,> 100,> 100,> 100,> 100,> 100,,,,,,,,,
O=S(=O)(OI(O)CC(F)(F)F)C(F)(F)F,,> 100,> 100,> 100,> 100,> 100,> 100,> 100,,,,,,,,
CC(O[Si](c1ccccc1)(c1ccccc1)C(C)(C)C)[C@H](NC(=O)OC(C)(C)C)C(=O)O (stereo partly specified),> 100,,> 100,> 100,> 100,> 100,> 100,59.8,,,,,,,,
N#Cc1c(N)c(C#N)c2c(c1-c1ccc(Cl)cc1)COc1ccccc1-2,,> 100,37.4,68.5,,30.4,35.3,68.8,,,,,,,,
Oc1cc(CN2COc3ccccc32)c(O)cc1CNC1CCCCC1,> 100,55.1,45,> 100,67.5,71.8,52.9,,,,,,,,,
CC(NC(NC(C)C12CC3CC(CC(C3)C1)C2)=C(C(Cl)=C(Cl)Cl)[N+](=O)[O-])C12CC3CC(CC(C3)C1)C2 (stereo unspecified),53.9,> 100,> 75.5,> 100,> 100,62.9,> 40,,,,,,,,,
